Laboratory results as given in patent US10745382B2 (BRISTOL-MYERS SQUIBB COMPANY, priority 2015, dated 2020).

Biological target: T1, PD-1/PD-L1 (Homo sapiens, UniProt Q9NZQ7)
T1 construct: made in house; host or cells: HEK293T
Experiment: PD-1/PD-L1 Homogenous Time-Resolved Fluorescence (HTRF) binding assay
Conditions: PD-L1-His 10 nM, PD-1-Ig 20 nM; numeric IC50; read-out: Range or IC50
In short: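 Binding measured in dPBS with 0.1% BSA and 0.05% Tween-20, detected by HTRF with europium cryptate anti-Ig (1 nM final) and APC anti-His (20 nM final) added over the binding reaction. Counter-assays used human PD-1-Ig/PD-L2-His (20 and 5 nM) and CD80-His/PD-L1-Ig (100 and 10 nM).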

T1 sequence (Q9NZQ7 with tags, fused parts or gaps): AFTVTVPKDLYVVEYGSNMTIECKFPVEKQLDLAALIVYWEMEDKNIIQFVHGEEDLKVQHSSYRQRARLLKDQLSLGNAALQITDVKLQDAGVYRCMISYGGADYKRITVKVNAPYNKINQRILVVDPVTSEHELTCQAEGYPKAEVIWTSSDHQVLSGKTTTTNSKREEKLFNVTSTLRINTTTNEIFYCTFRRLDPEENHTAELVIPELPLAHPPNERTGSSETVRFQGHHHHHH

Row | SMILES | IC50
1 | CCNC(=O)c1cccc(-c2cccc(COc3cc(OCc4cncc(C#N)c4)c(CNC(C)(CO)CO)cc3Cl)c2C)c1C [Example 4010, 3′-((2-chloro-5-((5-cyanopyridin-3-yl)methoxy)-4-(((1,3-dihydroxy-2-methylpropan-2-yl)amino)methyl)phenoxy)methyl)-N-ethyl-2,2′-dimethyl-[1,1′-biphenyl]-3-carboxamide] | 11 nM

Same assay, conditions: PD-L1-His 10 nM, PD-1-Ig 20 nM; value given as range class; read-out: Range or IC50

Row | SMILES | IC50
2 | Cc1c(COc2cc(OCc3cncc(C#N)c3)c(CN3CCCC[C@H]3C(=O)O)cc2Cl)cccc1-c1cccc(OCCCN2CCC[C@@H](O)C2)c1 [Example 1018, (S)-1-(5-chloro-2-((5-cyanopyridin-3-yl)methoxy)-4-((3′-(3-((R)-3-hydroxypiperidin-1-yl)propoxy)-2-methyl-[1,1′-biphenyl]-3-yl)methoxy)benzyl)piperidine-2-carboxylic Acid] | 0.21 to 10 nM
3 | COC(=O)C1CN(CCCOc2cccc(-c3cccc(COc4cc(OCc5cncc(S(C)(=O)=O)c5)c(CN5CCCC[C@H]5C(=O)O)cc4Cl)c3C)c2C)CC1O (stereo partly drawn) [Example 1072, (2S)-1-(5-chloro-4-((3′-(3-(3-hydroxy-4-(methoxycarbonyl)pyrrolidin-1-yl)propoxy)-2,2′-dimethyl-[1,1′-biphenyl]-3-yl)methoxy)-2-((5-(methylsulfonyl)pyridin-3-yl)methoxy)benzyl)piperidine-2-carboxylic Acid] | 0.21 to 10 nM
4 | Cc1c(COc2cc(OCc3cncc(C#N)c3)c(CNC(C)(CO)CO)cc2Cl)cccc1-c1cccc(OCC(O)CN2CC[C@@H](O)C2)c1Cl (stereo partly drawn) [Example 2086, 5-((4-chloro-5-((2′-chloro-3′-(2-hydroxy-3-((R)-3-hydroxypyrrolidin-1-yl)propoxy)-2-methyl-[1,1′-biphenyl]-3-yl)methoxy)-2-(((1,3-dihydroxy-2-methylpropan-2-yl)amino)methyl)phenoxy)methyl)nicotinonitrile] | 0.21 to 10 nM
5 | Cc1c(COc2cc(OCc3cncc(C#N)c3)c(CN[C@@](C)(CO)C(=O)O)cc2Cl)cccc1-c1cccc(OCCC(=O)N2CC[C@@H](O)C2)c1 [Example 1010, (S)-2-((5-chloro-2-((5-cyanopyridin-3-yl)methoxy)-4-((3′-(3-((R)-3-hydroxypyrrolidin-1-yl)-3-oxopropoxy)-2-methyl-[1,1′-biphenyl]-3-yl)methoxy)benzyl)amino)-3-hydroxy-2-methylpropanoic Acid] | 0.21 to 10 nM
6 | Cc1c(COc2cc(OCc3cncc(C#N)c3)c(CN3CCCC[C@H]3C(=O)O)cc2Cl)cccc1-c1cccc(OCCCN2CCCCC2C)c1C (stereo partly drawn) [Example 2245, (2S)-1-(5-chloro-2-((5-cyanopyridin-3-yl)methoxy)-4-((2,2′-dimethyl-3′-(3-(2-methylpiperidin-1-yl)propoxy)biphenyl-3-yl)methoxy)benzyl)piperidine-2-carboxylic Acid] | 0.21 to 10 nM
7 | Cc1c(COc2cc(OCc3cncc(C#N)c3)c(CN3CCCC[C@H]3C(=O)O)cc2Cl)cccc1-c1cccc(OCCCN2CCC(O)(C(=O)O)CC2)c1Cl [Example 1097, (S)-1-(4-((3′-(3-(4-carboxy-4-hydroxypiperidin-1-yl)propoxy)-2′-chloro-2-methyl-[1,1′-biphenyl]-3-yl)methoxy)-5-chloro-2-((5-cyanopyridin-3-yl)methoxy)benzyl)piperidine-2-carboxylic Acid] | 0.21 to 10 nM
8 | Cc1c(CCCCN2CC[C@@H](O)C2)cccc1-c1cccc(COc2cc(OCc3cncc(C#N)c3)c(CN3CCN(C(=O)OC(C)(C)C)C[C@H]3C(=O)O)cc2Cl)c1C [Example 4068, (S)-4-(tert-butoxycarbonyl)-1-(5-chloro-2-((5-cyanopyridin-3-yl)methoxy)-4-((3′-(4-((R)-3-hydroxypyrrolidin-1-yl)butyl)-2,2′-dimethyl-[1,1′-biphenyl]-3-yl)methoxy)benzyl)piperazine-2-carboxylic Acid] | 0.21 to 10 nM
9 | CC(=O)NCCNCc1cc(Cl)c(OCc2cccc(-c3cccc(OCCCN4CC[C@@H](O)C4)c3)c2C)cc1OCc1cncc(C#N)c1 [Example 1015, (R)—N-(2-((5-chloro-2-((5-cyanopyridin-3-yl)methoxy)-4-((3′-(3-(3-hydroxypyrrolidin-1-yl)propoxy)-2-methyl-[1,1′-biphenyl]-3-yl)methoxy)benzyl)amino)ethyl)acetamide] | 0.21 to 10 nM
10 | CCNC(=O)c1cccc(-c2cccc(COc3cc(OCc4cc(F)cc(F)c4)c(CNC(C)(CO)CO)cc3Cl)c2C)c1C [Example 4022, 3′-((2-chloro-5-((3,5-difluorobenzyl)oxy)-4-(((1,3-dihydroxy-2-methylpropan-2-yl)amino)methyl)phenoxy)methyl)-N-ethyl-2,2′-dimethyl-[1,1′-biphenyl]-3-carboxamide] | 100 to 2000 nM
11 | Cc1c(COc2cc(OCc3cncc(C#N)c3)c(C(=O)NC(C)(CO)CO)cc2Cl)cccc1-c1cccc(OCCCN2CC[C@@H](O)C2)c1C [Example 2378, (R)-5-chloro-2-((5-cyanopyridin-3-yl)methoxy)-N-(1,3-dihydroxy-2-methylpropan-2-yl)-4-((3′-(3-(3-hydroxypyrrolidin-1-yl)propoxy)-2,2′-dimethyl-[1,1′-biphenyl]-3-yl)methoxy)benzamide] | 0.21 to 10 nM
12 | COC(=O)C1(O)CCN(CCCOc2cccc(-c3cccc(COc4cc(OCc5cncc(C#N)c5)c(CN[C@](C)(CO)C(=O)O)cc4Cl)c3C)c2C)C1 (stereo partly drawn) [Example 1046, (2R)-2-((5-chloro-2-((5-cyanopyridin-3-yl)methoxy)-4-((3′-(3-(3-hydroxy-3-(methoxycarbonyl)pyrrolidin-1-yl)propoxy)-2,2′-dimethyl-[1,1′-biphenyl]-3-yl)methoxy)benzyl)amino)-3-hydroxy-2-methylpropanoic Acid] | 0.21 to 10 nM
13 | Cc1c(COc2cc(OCc3cncc(C#N)c3)c(CN(C)CC(O)CO)cc2Cl)cccc1-c1cccc(OCCCN(C)CC(O)CO)c1C (stereo not drawn) [Example 2254, 5-((4-chloro-2-(((2,3-dihydroxypropyl)(methyl)amino)methyl)-5-((3-(3-((2,3-dihydroxypropyl) (methyl)amino)propoxy)-2,2′-dimethylbiphenyl-3-yl)methoxy)phenoxy)methyl)nicotinonitrile] | 0.21 to 10 nM
14 | Cc1c(COc2cc(OCc3cncc(C#N)c3)c(CNC(C)(CO)CO)cc2Cl)cccc1-c1cccc(C(=O)N2CCOCC2)c1C [Example 4053, 5-((4-chloro-2-(((1,3-dihydroxy-2-methylpropan-2-yl)amino)methyl)-5-((2,2′-dimethyl-3′-(morpholine-4-carbonyl)-[1,1′-biphenyl]-3-yl)methoxy)phenoxy)methyl)nicotinonitrile] | 10 to 100 nM
15 | Cc1c(COc2cc(OCc3cncc(C#N)c3)c(CN3C[C@@H](O)C[C@H]3C(=O)O)cc2Cl)cccc1-c1cccc(OCC(=O)N2CC[C@@H](O)C2)c1 [Example 1008, (2S,4S)-1-(5-chloro-2-((5-cyanopyridin-3-yl)methoxy)-4-((3′-(2-((R)-3-hydroxypyrrolidin-1-yl)-2-oxoethoxy)-2-methyl-[1,1′-biphenyl]-3-yl)methoxy)benzyl)-4-hydroxypyrrolidine-2-carboxylic Acid] | 10 to 100 nM
16 | Cc1c(COc2cc(OCc3cncc(C#N)c3)c(CN[C@@](C)(CO)C(=O)O)cc2Cl)cccc1-c1cccc(O[C@@H](C)CCN2CC[C@@H](O)C2)c1Cl [Example 1521, (S)-2-((5-chloro-4-((2′-chloro-3′-(((S)-4-((R)-3-hydroxypyrrolidin-1-yl)butan-2-yl)oxy)-2-methyl-[1,1′-biphenyl]-3-yl)methoxy)-2-((5-cyanopyridin-3-yl)methoxy)benzyl)amino)-3-hydroxy-2-methylpropanoic acid] | 0.21 to 10 nM
17 | Cc1c(COc2cc(OCc3cncc(C#N)c3)c(CO)cc2Cl)cccc1-c1cccc(OCCCN2CCCCC2)c1Cl [Example 2018, 5-((4-chloro-5-((2′-chloro-2-methyl-3′-(3-(piperidin-1-yl)propoxy)-[1,1′-biphenyl]-3-yl)methoxy)-2-(hydroxymethyl)phenoxy)methyl)nicotinonitrile] | 0.21 to 10 nM
18 | Cc1c(COc2cc(OCc3cncc(C#N)c3)c(CN3CCCC[C@H]3C(=O)O)cc2Cl)cccc1-c1cccc(OCCCN2CC[C@H](F)C2)c1C [Example 2247, (2S)-1-(5-chloro-2-((5-cyanopyridin-3-yl)methoxy)-4-((3′-(3-((S)-3-fluoropyrrolidin-1-yl)propoxy)-2,2′-dimethylbiphenyl-3-yl)methoxy)benzyl)piperidine-2-carboxylic Acid] | 0.21 to 10 nM
19 | Cc1c(COc2cc(OCc3cncc(C#N)c3)c(CN[C@@](C)(CO)C(=O)O)cc2Cl)cccc1-c1cccc(OCC(=O)N2CC[C@H](O)C2)c1 [Example 1004, (S)-2-((5-chloro-2-((5-cyanopyridin-3-yl)methoxy)-4-((3′-(2-((S)-3-hydroxypyrrolidin-1-yl)-2-oxoethoxy)-2-methyl-[1,1′-biphenyl]-3-yl)methoxy)benzyl)amino)-3-hydroxy-2-methylpropanoic Acid] | 10 to 100 nM
20 | Cc1c(COc2cc(OCc3cncc(C#N)c3)c(CN3CCCC[C@H]3C(=O)O)cc2Cl)cccc1-c1cccc(OCCCN2C3COCC2COC3)c1C [Example 3052, (S)-1-(4-((3′-(3-((1s,5s)-3,7-dioxa-9-azabicyclo[3.3.1]nonan-9-yl)propoxy)-2,2′-dimethyl-[1,1′-biphenyl]-3-yl)methoxy)-5-chloro-2-((5-cyanopyridin-3-yl)methoxy)benzyl)piperidine-2-carboxylic Acid] | 0.21 to 10 nM
21 | Cc1c(OCCCN2CC[C@H](CO)[C@H](O)C2)cccc1-c1cccc(COc2cc(OCc3cncc(C#N)c3)c(CNC(CO)CO)cc2Cl)c1Cl [Example 2298, 5-((4-chloro-5-((2-chloro-3′-(3-((3S,4R)-3-hydroxy-4-(hydroxymethyl)piperidin-1-yl)propoxy)-2′-methyl-[1,1′-biphenyl]-3-yl)methoxy)-2-(((1,3-dihydroxypropan-2-yl)amino)methyl)phenoxy)methyl)nicotinonitrile] | 0.21 to 10 nM
